Results: patent publication US20110098296A1, “Thiazole And Oxazole Kinase Inhibitors” (priority 2007, published 2011)
Counter-ions that a name gives are not always drawn.

Key:
Colo205 tumor cells = experiment: Method C: Cell Growth Inhibition Assay (CellTiter-Glo), Colo205; assay type: cell-based; conditions: Homo sapiens, COLO 205, 72 h, 3 days, 4-parameter fit
Method: (§1) Human breast tumor cells (BT474) were cultured in RPMI (Mediatech 50-011-PB), containing 10% FBS (JRH Biosciences 12176) and 1% penicillin-streptomycin (Invitrogen 15140). Human head and neck tumor cells (HN5) were cultured in high glucose DMEM (Mediatech 50-013-PB) containing 10% FBS and 1% penicillin-streptomycin. Human colon tumor cells (Colo205) were cultured in RPMI (Mediatech 50-020-PB) containing 10% FBS and 1% penicillin-streptomycin. Human melanoma cancer cells (SK-MEL-28) were cultured in EMEM with nonessential amino acids (Mediatech 50-011-PB) containing 10% FBS, 1% sodium pyruvate (JT Baker 3354-04), and 1% penicillin-streptomycin. Human melanoma cancer cells (A375P F11s) were cultured in RPMI (Mediatech 50-020-PB) containing 10% FBS, 1% sodium pyruvate, and 1% penicillin-streptomycin. Human colon cancer cells (HT-29) were cultured in high glucose DMEM (Mediatech 50-013-PB) containing 10% FBS and 1% penicillin-streptomycin. Human melanoma cancer cells (SK-MEL-3) were cultured in McCoy's 5A (50-025-PB) containing 15% FBS, and 1% penicillin-streptomycin. All cell lines were maintained at 37° C. in a humidified 5% CO2, 95% air incubator. Cells were harvested using trypsin/EDTA (Invitrogen 25200), counted using an haemocytometer, and plated. For 96-well assays (using white full-area NUNC plates cat. #136102), cells were plated in 105 μL at the following densities (cells/well): HN5, 500; Colo205, 500; SK-MEL-28, 500; A375P-F11s, 500; HT-29, 500; SK-MEL-3, 500; and BT474, 3000. For 384-well assays (white full-area NUNC plates, cat. #781080), cells were plated in 48 μL at the following densities (cells/well): HN5, 500; Colo205, 500; SK-MEL-28, 500; A375P-F11s, 500; HT29, 500; SK-MEL-3, 500; and BT474, 2000.
(§2) The next day, compounds were diluted as follow: For 96-well assays, 13.5 μL of compound in DMSO were diluted using nine (9) serial 1:3 dilutions of 4.5 μL in 9 μL of DMSO. Medium (270 μl/well of RPMI with 10% FBS and 1% penicillin-streptomycin) was added to the plates. Aliquots (7 μl) were added to cells in the final assay giving a final DMSO concentration of 0.2%. For 384-well assays, 15 μL of compound in DMSO were diluted using nine (9) serial 1:3 dilutions of 5 μL in 10 μL of DMSO, followed by a further dilution of 5 μL of compound with 95 μL of medium, of which 2 μL were added to cells in the final assay giving a final DMSO concentration of 0.2%. Cells were incubated at 37° C., 5% CO2 for 3 days.
(§3) Total ATP was measured (as a surrogate estimate of cell number) using CellTiter-Glo® reagent (Promega G7571). Briefly, plates were removed from the incubator and allowed to equilibrate to room temperature for 30 minutes. CellTiter-Glo® (25 μL or 55 μL for 384-well or 96-well assays, respectively) reagent was added to each well and plates were shaken on an orbital plate shaker for 2 mins. Plates were incubated without shaking for a further 30 mins and read on an LJL Analyst GT reader in luminometer mode with an integration time of 0.5 seconds per well. Percent inhibition of cell growth was calculated relative to DMSO vehicle-treated control wells. Concentration of compound required to give 50% inhibition of vehicle-treated control cell growth (IC50) was interpolated using a 4-parameter fit for determining IC50 using the following equation: Y=A+((B−A)/(1+((C/X)̂D))) where X=IC50.

SK-MEL-28 tumor cells = experiment: Method C: Cell Growth Inhibition Assay (CellTiter-Glo), SK-MEL-28; assay type: cell-based; conditions: Homo sapiens, SK-MEL-28, 72 h, 3 days, 4-parameter fit
Method: as §1, §2, §3

EGFR = biological target: T1, EGFR (Homo sapiens, UniProt P00533); experiment: EGFR substrate phosphorylation assay (HTRF); assay type: biochemical
T1 construct: made in house; host or cells: baculovirus expression system
T1 sequence (P00533 25-1210): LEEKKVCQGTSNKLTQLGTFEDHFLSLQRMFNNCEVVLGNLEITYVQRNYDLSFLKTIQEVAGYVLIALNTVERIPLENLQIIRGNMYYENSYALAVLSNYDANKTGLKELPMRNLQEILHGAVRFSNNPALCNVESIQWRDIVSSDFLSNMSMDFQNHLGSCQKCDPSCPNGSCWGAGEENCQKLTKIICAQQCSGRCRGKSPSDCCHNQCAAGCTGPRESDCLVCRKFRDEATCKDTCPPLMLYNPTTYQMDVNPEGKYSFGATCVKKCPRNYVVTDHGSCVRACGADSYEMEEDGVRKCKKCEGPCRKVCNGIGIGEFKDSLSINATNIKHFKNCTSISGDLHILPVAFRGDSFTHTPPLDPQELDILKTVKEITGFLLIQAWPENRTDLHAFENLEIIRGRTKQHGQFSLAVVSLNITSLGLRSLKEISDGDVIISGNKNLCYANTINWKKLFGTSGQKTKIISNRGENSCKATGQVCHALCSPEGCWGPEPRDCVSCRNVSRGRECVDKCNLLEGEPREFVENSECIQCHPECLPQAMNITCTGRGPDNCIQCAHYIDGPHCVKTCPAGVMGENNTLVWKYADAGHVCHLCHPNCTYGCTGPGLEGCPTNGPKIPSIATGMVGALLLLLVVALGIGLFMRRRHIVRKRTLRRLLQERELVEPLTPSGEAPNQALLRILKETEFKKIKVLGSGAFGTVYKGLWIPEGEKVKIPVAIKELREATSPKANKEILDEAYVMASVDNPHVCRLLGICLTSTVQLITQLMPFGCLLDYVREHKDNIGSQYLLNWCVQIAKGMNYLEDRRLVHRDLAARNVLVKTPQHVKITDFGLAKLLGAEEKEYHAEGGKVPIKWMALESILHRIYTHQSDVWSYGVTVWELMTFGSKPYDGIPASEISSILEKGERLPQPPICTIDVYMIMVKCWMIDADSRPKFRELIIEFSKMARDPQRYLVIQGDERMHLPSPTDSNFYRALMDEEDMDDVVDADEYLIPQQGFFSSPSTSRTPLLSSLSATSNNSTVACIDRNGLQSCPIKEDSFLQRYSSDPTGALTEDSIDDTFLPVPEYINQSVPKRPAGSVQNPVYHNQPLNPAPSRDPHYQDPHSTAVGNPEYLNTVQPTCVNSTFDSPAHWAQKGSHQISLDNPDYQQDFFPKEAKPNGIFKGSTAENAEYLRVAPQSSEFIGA
Method: (§4) Compounds of the present invention were tested for EGFR and ErbB-2 protein tyrosine kinase inhibitory activity in substrate phosphorylation assays using enzymes purified from a baculovirus expression system. Reagent production was conducted essentially as described in Brignola, P. S., et al., (2002) J. Biol. Chem. 277(2):1576-1585.
(§5) The method measures the ability of the isolated enzyme to catalyse the transfer of the gamma-phosphate from ATP onto the tyrosine residue of a biotinylated synthetic peptide referenced “Peptide C” in Brignola, P. S., et al., (2002) J. Biol. Chem. 277(2):1576-1585. The extent of tyrosine phosphorylation was measured using an anti-phosphotyrosine antibody, and quantified by homogenous time-resolved fluorescence (HTRF).
(§6) Reactions were performed in black 384-well polystyrene flat-bottom plates in a final volume of 20 μl. Assays were performed by adding 10 μl of each of the following solutions, Substrate Mix and Enzyme Mix: The Substrate Mix contained 100 mM 3-[N-morpholino]propanesulfonic acid (MOPS) (pH 7.5), 2 mM MnCl2, 20 μM ATP, 0.01% Tween-20, 0.1 mg/mL (BSA), 0.8 uM peptide substrate, and 1 mM dithiothreitol. The Enzyme Mix contained 100 mM MOPS (pH 7.5); 0.01% Tween-20; 0.1 mg/mL BSA, and either 0.8 nM EGFR, 10 nM ErbB2, or 1 nM ErbB4
(§7) During the course of these studies, two separate methods have been used to measure the potency of compounds. In Method A (indicated as “(A)” in the tables below), the Enzyme Mix was added to the compound plates and the plates were incubated at 20° C. for 1 hr. The reactions were then started by adding the Substrate Mix. In Method B (indicated as “(B)” in the tables below), the Substrate Mix was added to the compound plates first, then the reaction was started by adding the Enzyme Mix.
(§8) After initiating the reaction with either method describe above, the reactions were allowed to proceed for 90 minutes at 20° C. The reactions were then terminated by the addition of 20 μL 100 mM EDTA to each well. 40 μL/well of HTRF detection mix were added to the assay plates. The final concentrations of the detection reagents were: 100 mM HEPES (pH7.5), 0.1 mg/mL BSA, 15 nM streptavidin-labeled allophycocyanin (PerkinElmer), and 1 nM europium-labeled anti-phosphotyrosine antibody (PerkinElmer). Assay plates were left unsealed and were counted in a Wallac Multilabel Counter 1420 (PerkinElmer).
(§9) Compounds under analysis were dissolved in dimethylsulfoxide (DMSO) to 1.0 mM and serially diluted 1 to 3 with DMSO through twelve dilutions. 1 μL of each concentration was transferred to the corresponding well of an assay plate. This creates a final compound concentration range from 0.00027 to 47.6 μM.
(§10) The data for dose responses were plotted as % Inhibition calculated with the data reduction formula 100*(1−(U1−C2)/(C1−C2)) versus concentration of compound where U1 is the unknown value, C1 is the average control value obtained for 4.76% DMSO, and C2 is the average control value obtained for 0.035 M EDTA. Data were fitted with a curve described by:
(§11) where Vmax is the upper asymptote, Y2 is the Y intercept, and K is the IC50. The results for each compound were recorded as pIC50s, calculated as follows: […]

ErbB2 = biological target: T2, ErbB2 (Homo sapiens, UniProt P04626); experiment: ErbB-2 substrate phosphorylation assay (HTRF); assay type: biochemical
T2 construct: made in house; host or cells: baculovirus expression system
T2 sequence (P04626 23-1255): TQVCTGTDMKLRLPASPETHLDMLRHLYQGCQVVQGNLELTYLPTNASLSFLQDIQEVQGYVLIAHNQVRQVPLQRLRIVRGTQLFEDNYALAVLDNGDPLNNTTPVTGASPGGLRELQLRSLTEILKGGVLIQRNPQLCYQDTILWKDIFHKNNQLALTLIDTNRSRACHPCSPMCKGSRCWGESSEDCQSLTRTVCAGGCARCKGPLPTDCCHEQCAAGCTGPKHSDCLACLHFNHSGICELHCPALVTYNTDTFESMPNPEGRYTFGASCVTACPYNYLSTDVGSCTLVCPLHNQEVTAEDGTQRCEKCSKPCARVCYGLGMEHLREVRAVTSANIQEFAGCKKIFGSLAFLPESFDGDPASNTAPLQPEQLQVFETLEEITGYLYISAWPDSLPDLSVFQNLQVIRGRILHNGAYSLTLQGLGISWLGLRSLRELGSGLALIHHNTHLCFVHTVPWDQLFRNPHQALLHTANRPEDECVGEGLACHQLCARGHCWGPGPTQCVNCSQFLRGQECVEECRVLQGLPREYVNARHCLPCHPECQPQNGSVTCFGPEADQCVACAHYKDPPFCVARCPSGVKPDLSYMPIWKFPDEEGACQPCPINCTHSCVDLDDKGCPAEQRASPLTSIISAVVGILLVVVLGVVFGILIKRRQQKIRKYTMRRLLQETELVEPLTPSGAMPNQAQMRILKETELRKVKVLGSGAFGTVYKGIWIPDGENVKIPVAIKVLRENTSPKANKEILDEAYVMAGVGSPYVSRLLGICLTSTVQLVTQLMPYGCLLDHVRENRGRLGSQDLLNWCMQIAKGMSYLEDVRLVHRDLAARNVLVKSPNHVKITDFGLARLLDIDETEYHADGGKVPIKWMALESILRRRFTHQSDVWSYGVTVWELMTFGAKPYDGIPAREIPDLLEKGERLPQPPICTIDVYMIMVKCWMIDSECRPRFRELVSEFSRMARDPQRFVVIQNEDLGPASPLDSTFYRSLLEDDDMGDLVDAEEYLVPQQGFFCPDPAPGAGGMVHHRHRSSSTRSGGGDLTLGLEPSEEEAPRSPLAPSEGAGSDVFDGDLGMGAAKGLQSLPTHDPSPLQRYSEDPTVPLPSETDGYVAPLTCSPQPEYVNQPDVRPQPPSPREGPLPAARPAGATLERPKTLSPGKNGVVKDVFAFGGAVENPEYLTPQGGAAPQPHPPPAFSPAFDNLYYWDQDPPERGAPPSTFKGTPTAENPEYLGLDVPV
Method: as §4, §5, §6, §7, §8, §9, §10, §11

BT474 tumor cells = experiment: Method C: Cell Growth Inhibition Assay (CellTiter-Glo), BT474; assay type: cell-based; conditions: Homo sapiens, BT-474, 72 h, 3 days, 4-parameter fit
Method: as §1, §2, §3

[1] = Method (A): Enzyme Mix incubated with compound at 20° C. for 1 hr, reaction started by adding Substrate Mix
[2] = Method (B): Substrate Mix added to compound first, reaction started by adding Enzyme Mix

SMILES | IC50 (Colo205 tumor cells) | IC50 (SK-MEL-28 tumor cells) | IC50 (EGFR; [1]) | IC50 (ErbB2; [1]) | IC50 (BT474 tumor cells) | IC50 (EGFR; [2]) | IC50 (ErbB2; [2])
CN(C)CCOc1ccc(Nc2nccc(-c3sc(NS(=O)(=O)CC(F)(F)F)nc3-c3cccc(NC(=O)c4c(F)cccc4F)c3)n2)cc1 [Example 35, N-[3-(5-{2-[(4-{[2-(Dimethylamino)ethyl]oxy}phenyl)amino]-4-pyrimidinyl}-2-{[(2,2,2-trifluoroethyl)sulfonyl]amino}-1,3-thiazol-4-yl)phenyl]-2,6-difluorobenzamide] | > 1 µM | > 1 µM | < 0.1 µM | < 0.1 µM | > 1 µM | – | –
CN(C)c1nc(-c2cccc(NC(=O)c3c(F)cccc3F)c2)c(-c2ccnc(Nc3ccc(N4CCOCC4)c(Cl)c3)n2)s1 [Example 41, N-{3-[5-(2-{[3-Chloro-4-(4-morpholinyl)phenyl]amino}-4-pyrimidinyl)-2-(dimethylamino)-1,3-thiazol-4-yl]phenyl}-2,6-difluorobenzamide trifluoroacetate] | > 1 µM | > 1 µM | < 0.1 µM | < 0.1 µM | – | – | –
CN(C)c1nc(-c2cccc(NC(=O)c3c(F)cccc3F)c2)c(-c2ccnc(Nc3ccc(OCCN4CCCC4)nc3)n2)s1 [Example 43, N-[3-(2-(Dimethylamino)-5-{2-[(6-{[2-(1-pyrrolidinyl)ethyl]oxy}-3-pyridinyl)amino]-4-pyrimidinyl}-1,3-thiazol-4-yl)phenyl]-2,6-difluorobenzamide] | 0.1 to 1 µM | > 1 µM | < 0.1 µM | < 0.1 µM | – | – | –
CN1CCN(c2nc(-c3cccc(NC(=O)c4c(F)cccc4F)c3)c(-c3ccnc(Nc4cccc(CN5CCCC5)c4)n3)s2)CC1 [Example 46, 2,6-Difluoro-N-{3-[2-(4-methyl-1-piperazinyl)-5-(2-{[3-(1-pyrrolidinylmethyl)phenyl]amino}-4-pyrimidinyl)-1,3-thiazol-4-yl]phenyl}benzamide] | 0.1 to 1 µM | > 1 µM | < 0.1 µM | < 0.1 µM | 0.1 to 1 µM | – | –
O=C(Nc1cccc(-c2nc(N3CCC3)sc2-c2ccnc(Nc3ccc(OCCN4CCCC4)c(Cl)c3)n2)c1)c1c(F)cccc1F [Example 47, N-[3-(2-(1-Azetidinyl)-5-{2-[(3-chloro-4-{[2-(1-pyrrolidinyl)ethyl]oxy}phenyl)amino]-4-pyrimidinyl}-1,3-thiazol-4-yl)phenyl]-2,6-difluorobenzamide] | > 1 µM | > 1 µM | < 0.1 µM | < 0.1 µM | > 1 µM | – | –
O=C(Nc1cccc(-c2nc(N3CCCCC3)sc2-c2ccnc(Nc3cccc(CN4CCCC4)c3)n2)c1)c1c(F)cccc1F [Example 73, 2,6-Difluoro-N-{3-[2-(1-piperidinyl)-5-(2-{[3-(1-pyrrolidinylmethyl)phenyl]amino}-4-pyrimidinyl)-1,3-thiazol-4-yl]phenyl}benzamide] | 0.1 to 1 µM | > 1 µM | < 0.1 µM | < 0.1 µM | 0.1 to 1 µM | – | –
Cc1nc(-c2cccc(NC(=O)c3c(F)cccc3F)c2)c(-c2ccnc(Nc3ccc(OCCN4CCCC4)c(Cl)c3)n2)s1 [Example 110, N-[3-(5-{2-[(3-Chloro-4-{[2-(1-pyrrolidinyl)ethyl]oxy}phenyl)amino]-4-pyrimidinyl}-2-methyl-1,3-thiazol-4-yl)phenyl]-2,6-difluorobenzamide] | > 1 µM | > 1 µM | < 0.1 µM | < 0.1 µM | 0.1 to 1 µM | – | –
CCc1nc(-c2cccc(NC(=O)c3c(F)cccc3F)c2)c(-c2ccnc(Nc3ccc(N4CCC(N5CCCCC5)CC4)c(F)c3)n2)s1 [Example 116, N-{3-[5-(2-{[4-(1,4′-Bipiperidin-1′-yl)-3-fluorophenyl]amino}-4-pyrimidinyl)-2-ethyl-1,3-thiazol-4-yl]phenyl}-2,6-difluorobenzamide] | 0.1 to 1 µM | > 1 µM | < 0.1 µM | < 0.1 µM | – | – | –
CCc1nc(-c2cccc(NC(=O)c3c(F)cccc3F)c2)c(-c2ccnc(Nc3ccc(OCCN4CCCC4)c(F)c3)n2)s1 [Example 117, N-[3-(2-Ethyl-5-{2-[(3-fluoro-4-{[2-(1-pyrrolidinyl)ethyl]oxy}phenyl)amino]-4-pyrimidinyl}-1,3-thiazol-4-yl)phenyl]-2,6-difluorobenzamide] | > 1 µM | > 1 µM | < 0.1 µM | < 0.1 µM | 0.1 to 1 µM | – | –
O=C(Nc1cccc(-c2nc(CF)sc2-c2ccnc(Nc3ccc(OCCN4CCCC4)c(F)c3)n2)c1)c1c(F)cccc1F [Example 127] | > 1 µM | > 1 µM | < 0.1 µM | < 0.1 µM | – | – | –
O=C(Nc1cccc(-c2ncoc2-c2ccnc(Nc3cccc(F)c3)n2)c1)c1c(F)cccc1F [Example 141, 2,6-Difluoro-N-[3-(5-{2-[(3-fluorophenyl)amino]-4-pyrimidinyl}-1,3-oxazol-4-yl)phenyl]benzamide] | – | – | – | – | – | > 1 µM | > 1 µM
